Source: US20190212343A1, “METHODS FOR THE TREATMENT OF DISORDERS RELATED TO PHOSPHORYLATION OF HISTONES” (H. LEE MOFFITT CANCER CENTER AND RESEARCH INSTITUTE, INC., priority 2014, published 2019)
Residues, ends and D or L forms follow the SMILES beside them. *: point of attachment. Cbz = O=C(OCc1ccccc1)*

Key:
AR mRNA = AR mRNA levels in androgen-deprived prostate cancer cells (qPCR with AR primers); assay type: cell-based, human; conditions: androgen-deprived LAPC4 and LNCaP cells, overnight treatment
PSA mRNA = PSA mRNA levels in androgen-deprived prostate cancer cells (qPCR with PSA primers); assay type: cell-based, human; conditions: overnight treatment
Protocol: (FIG. 7A) VCaP and (FIG. 7B) LNCaP cells were grown in absence of androgen and were overnight treated with DZI-067 (7 uM in VCaP, 2.5 & 5 uM in LnCaP), AIM-100 (7 uM), PLX4032 (7 uM), Casodex, Enzalutamide (10 uM) and DHT (10 nM, 3 Hr). Total RNA was isolated followed by qPCR with AR primers. VCaP, *p=0.022, **p=0.018; LNCaP, *p=0.042, **p=0.047, ***p=0.029. (FIG. 7C) VCaP and (FIG. 7D) LNCaP cells were grown in absence of androgen and were overnight treated with DZ1-067 (7 uM in LAPC4, 2.5 & 5 uM in LnCaP), AIM-100 (7 uM), PLX4032 (7 uM), Casodex, Enzalutamide (10 uM) and DHT (10 nM, 3 Hr). Total RNA was isolated followed by qPCR with PSA primers.

[1] = tested on: H4 Y88-phosphorylation (ACK1); assay: Endogenous H4 pY88-phosphorylation in LNCaP cells (pY88-H4 immunoprecipitation / H4 immunoblot); assay type: cell-based, human; conditions: 16 hrs
Protocol: FIGS. 9A-9E show ACK1 phosphorylates histone H4 at Tyrosine 88. (FIG. 9A) peptide were spotted followed by immunoblotting with indicated antibodies. (FIG. 9B) Equimolar amounts of purified ACK1 and H4 proteins were incubated in the presence of AIM-100 (100 nM) and reaction subjected to immunoblotting with pTyr antibodies. (FIG. 9C) In vitro kinase assay performed using purified ACK1 and H4, followed by immunoblotting with pY88-H4 antibodies. (FIG. 9D) H4 Y88-phosphorylation in vivo. LNCaP cells were treated with DZI-067, AIM-100 or Enzalutamide (7 uM, 16 hrs). The nuclear lysates were immunoprecipitated with pY88-H4 antibodies followed by immunoblotting with H4. Lower panel is input lysate. (FIG. 9E) LNCaP cells were treated with Crizotinib (1 uM, 16 hrs). The cell lysates were immunoprecipitated with pY88-H4 antibodies followed by immunoblotting with H4 (upper panel).
To explore the sensitivity of endogenous H4 pY88-phosphorylation to ACK1 inhibitor, LNCaP cells were treated with DZI-067, AIM-100 or Enzalutamide.
Applicant also assessed the sensitivity of endogenous H4 pY88-phosphorylation to small molecule inhibitor, Crizotinib, also known as Xalkori (Pfizer). […] It is approved for treatment of some non-small cell lung carcinoma (NSCLC).

CRPC patients = conditions: cited from earlier work
AR protein levels = AR protein levels in androgen deprived prostate cancer cells (immunoblotting); assay type: cell-based, human; conditions: LNCaP cells, MG 132 10 uM 6 hr, in presence or absence of AIM-100
Protocol: (FIG. 6A) Androgen starved LAPC4 cells were treated with DHT (10 nM, 16 Hrs), AIM-100, DZI-067, Enzalutamide or PLX4032 (7 uM, 36 Hr) and AR, pACK1 and Actin levels were determined by immunoblotting (IB). The relative level of AR is shown below. (FIG. 6B) Androgen deprived LNCaP and VCaP cell were untreated or treated with 2.5, 5 and 10 uM of AIM-100 and lysates were immunoblotted. The quantitation of AR expression is shown. (FIG. 6C) Androgen deprived LNCaP and VCaP cell were untreated or treated with 2.5, 5 and 10 uM of DZI-067 and lysates were immunoblotted. The quantitation of AR expression is shown. (FIG. 6D) LNCaP cells were transfected with control and Ack1 siRNAs followed by immunoblotting. (FIG. 6E) LNCaP cells treated with AIM-100 (7 uM, 16 hr) or MG 132 (10 uM, 6 hr) were immunoblotted with AR antibodies. […]
AR has been known to interact with an ubiquitin E3 ligase, RNF6, causing AR ubiquitination, which in turn promoted AR transcriptional activity (Xu, K. et al. (2009) Cancer Cell 15(4):270-282). To determine whether post-translational modification has role to play in suppression of AR levels upon Ack1 kinase inhibition, LNCaP cells were treated with proteosomal inhibitor, MG-132 and AR levels were measured in presence or absence of AIM-100.

IDH2 transcript = assay: Epigenetic marks and IDH2 transcript levels in melanoma cancer cells; assay type: cell-based, human
WEE1 = conditions: yeast and mammalian cells; cited from earlier work
[2] = tested on: WEE1 expressing cancer cell lines; conditions: cited from earlier work

CC(O)(CS(=O)(=O)c1ccc(F)cc1)C(=O)Nc1ccc(C#N)c(C(F)(F)F)c1 (stereo not drawn) [Casodex]
AR mRNA levels (AR mRNA): no significant change in AR mRNA levels
PSA mRNA levels (PSA mRNA): significantly suppressed PSA mRNA levels

C[C@@H](Oc1cc(-c2cnn(C3CCNCC3)c2)cnc1N)c1c(Cl)ccc(F)c1Cl [Crizotinib]
endogenous pY88-phosphorylation of H4 ([1]; 1 uM): significant loss of endogenous pY88-phosphorylation of H4

C[C@]12CCC(=O)C[C@@H]1CC[C@@H]1[C@@H]2CC[C@]2(C)[C@@H](O)CC[C@@H]12 [DHT, dihydrotestosterone]
AR mRNA levels (AR mRNA): no significant change in AR mRNA levels
endogenous pY88-phosphorylation of H4 ([1]; 7 uM): unaffected

CNC(=O)c1ccc(N2C(=S)N(c3ccc(C#N)c(C(F)(F)F)c3)C(=O)C2(C)C)cc1F [Enzalutamide]
AR mRNA levels (AR mRNA): no significant change in AR mRNA levels
PSA mRNA levels (PSA mRNA): significantly suppressed PSA mRNA levels
endogenous pY88-phosphorylation of H4 ([1]; 7 uM): unaffected
CRPC patients in whom treatment is effective (CRPC patients): 12 out of 30
overall survival advantage (CRPC patients): 4-6 months
time to relapse of the most responding patients (CRPC patients): ≤ 2 years

CC(C)C[C@@H](C=O)NC(=O)[C@H](CC(C)C)NC(=O)[C@H](CC(C)C)NC(=O)OCc1ccccc1 [MG-132] (Cbz-Leu-Leu-Leu-aldehyde)
loss of AR caused by Ack1 kinase inhibition (AR protein levels): did not prevent loss of AR

C=CCn1c(=O)c2cnc(Nc3ccc(N4CCN(C)CC4)cc3)nc2n1-c1cccc(C(C)(C)O)n1 [MK-1775]
IDH2 transcript levels (IDH2 transcript): increasing IDH2 transcript levels
WEE1 epigenetic marks (IDH2 transcript): reversed epigenetic marks
WEE1 epigenetic activity (WEE1): inhibited WEE1 epigenetic activity
histone transcriptional suppression (WEE1): robustly reversed histone transcriptional suppression
apoptosis [2]: selectively induces apoptosis

CCCS(=O)(=O)Nc1ccc(F)c(C(=O)c2c[nH]c3ncc(-c4ccc(Cl)cc4)cc23)c1F [PLX4032]
AR mRNA levels (AR mRNA): no significant change in AR mRNA levels
